From patent publication US11191735B2, “Arginine silicate for periodontal disease” (NUTRITION 21, LLC, priority 2015, dated 2021)
Like-named read-outs stand apart in the source and are kept apart here. Marks after values point to notes of the source that are not given here.

Assays:
[1] = system: experimental periodontal disease (ligature model); conditions: for ICI Dense, animals / ICI Little visible, animals / ICI Slightly visible, animals: n=13
Protocol: (§1) All animals and surgical procedures were handled in accordance with guidelines of the Chancellor's Animal Research Committee of the Office for Protection of Research Subjects at the University of Inonu, Malatya, Turkey (2013/A-12). Fifty-two (2-month-old) female Sprague-Dawley rats weighing […] (Experimental Research Center of Inonu University) were kept in temperature-controlled cages (approximately 25° C.), exposed to a 24-hr light-dark cycle of equal time, and had free access to water and food ad libitum.
(§2) The fifty-two rats were randomly divided into four groups: the non-ligated treatment (Control) group (n=13), the ligature-only (L) group (n=13), the ligature plus ASI (“arginine-silicate-inositol;” Nutrition 21, NY, USA, see, e.g. U.S. Pat. Nos. 5,707,970 and 7,576,132) with dose of 1.81 mg/kg of diet group (designated “ASI I”), (n=13), the ligature plus ASI with dose of 3.62 mg/kg of diet group (designated “ASI II”) (n=13).
(§3) For all the studies described herein, the well-characterized ligature model of placing a sterile wire ligature around the crown of the right first maxillary molar was utilized. Rats were anesthetized with Rompun®, 10 mg/kg ve Xylazine®, 40 mg/kg ketamin, and a sterile 28-gauge wire ligature was placed around the cervical portion of the right first molar. Animals continued to receive basal diet or basal diet supplemented with 1.81 or 3.62 […] (Proctor et al., 2005) for 8 weeks before ligature placement.
A histologic evaluation was performed by a single examiner (I.O.) who was masked to the identity of the samples. The specimens were fixed in a 10% neutral-buffered formalin solution and demineralized in an aqueous 10% formic acid solution. The specimens were then dehydrated, embedded in paraffin, and sectioned along the molars in a mesiodistal plane for hematoxylin and eosin staining, as described by Toker et al. Light microscopy (Nikon, Tokyo, Japan), and assessment was performed on the two sections with a thickness of about […], corresponding to the buccal and lingual areas between the first and second molars where ligatures had been placed.
The areas of alveolar bone and interdental septum were analyzed under light microscopy, considering parameters including inflammatory cell infiltration (“ICI”) of the periodontal tissues, existing resorption lacunae (osteoclast surfaces), osteoblastic activity (forming surfaces) and the number of osteoclasts. […] Osteoclasts were counted based on their morphology.

[2] = system: IL-1β, MMP-8, RANK, RANKL, OPG, MPO expression levels from periodontal tissue; conditions: for IL-1β protein level / MMP-8 protein level / MPO protein level / OPG protein level / RANK protein level / RANKL protein level: control = 100
Excerpt: FIG. 1B depicts western blot strips Il-1B, MMP-8, RANK, RANK-L, OPG and MPO expression levels from periodontal tissue.
as §1, §2, §3
(§4) Animals were monitored weekly to ensure presence of the ligature, and the ligature was adjusted if necessary. At the end of the experiment, animals were euthanized, blood was collected via cardiac puncture, and serum biomarkers including Ca, Mg, phosphorus, alkaline phosphatase, and CRP (C-reactive protein) were measured. Whole maxillas were removed, placed in 10% formalin for 48 hours, and stored in 70% ethanol.

[3] = system: gingivitis; experiment: Study in patients with gingivitis (Example 4); type: in vivo, human
Protocol: 20 patients with gingivitis (having at least three of the following symptoms: swollen gums, bright red or purple gum tissue, gum tissue that is sensitive to touch, bleeding gums, bad breath) are studied. Five patients are administered once-daily arginine silicate (I); five patients are topically administered once-daily arginine silicate to the oral cavity (II); five patients are administered chlorhexidine mouthwash for twice-daily use (III); and five patients are administered standard over-the-counter mouthwash for twice daily use (IV).
Patients are evaluated at four weeks, eight weeks, and twelve weeks. […] The trial is ceased at twelve weeks to avoid side effects from the chlorhexidine treatment.

[4] = system: early to mild periodontitis
Excerpt: The study group comprises ten systemically healthy subjects with early to mild periodontitis. […] Prior to any treatment procedure, oral hygiene instructions (OHI) are given. Each quadrant of the subjects is randomly assigned to one of the following groups: (A) scaling and root planning combined with daily administration of arginine silicate post-treatment, (B) scaling and root planning alone, (C) daily administration of arginine silicate alone, and (D) OHI alone.
Subjects are re-examined at one week, four weeks, eight weeks, and 12 weeks.

[5] = system: experimental periodontal disease (ligature model); conditions: for ALP (serum) / CRP (serum) / Ca (serum) / P (serum): rats
Protocol: as §1, §2, §3, §4

[6] = system: experimental periodontal disease (ligature model)
Protocol: as §1, §2, §3
Bones were imaged by micro-computed tomographic (μCT) scanning (SkyScan1172 Compact MKT (Kontich, Belgium)) at 16-μm resolution, and volumetric data were converted to DICOM format and imported in the Recon 1.6.9.4 SkyScan (Contich, Belgium) to generate 3D and multiplanar reconstructed images. An oral and maxillofacial radiologist (ST), blinded to the specific animal treatment, evaluated the μCT images of all animals to identify and score bony changes and performed all linear measurements using Recon software tools.
To quantify the amount of bone loss induced by experimental periodontal disease (PD), the imaged volume was oriented with the nasal cavity floor parallel to the horizontal plane and the midpalatal suture parallel to the midsagittal plane. Then the volume was angled such that the long axis of the distal root of the first molar (D1) and the mesial root of the second molar (M2) were vertical to the horizontal plane. Then the distance between the cementoenamel junction (CEJ) and the alveolar bone crest (ABC) was measured at the center of D1 and M2. To quantitatively assess changes in the width of the buccal alveolar outline on axial slices, the imaged volume was oriented such that the floor of the nasal cavity was parallel to the horizontal plane and the midpalatal suture was parallel to the midsagittal plane. Then the shortest distance from the buccal surface of the root to the buccal outline of the alveolar ridge was measured for the mesial and distal roots of the first and second molars at the level of the hard palate.

[7] = L + ASI I: ligature plus ASI, 1.81 mg/kg of diet
[8] = L + ASI II: ligature plus ASI, 3.62 mg/kg of diet

arginine silicate inositol [ASI]
ICI (inflammatory cell infiltration) ([1]; ASI treatment (both doses)): significantly reduced
ICI Dense, animals ([1]; L + ASI I: 1.81 mg/kg of diet): 4 (%30.8) n (%)
ICI Little visible, animals ([1]; L + ASI I: 1.81 mg/kg of diet): 0 (%0) n (%)
ICI Slightly visible, animals ([1]; L + ASI I: 1.81 mg/kg of diet): 9 (%69.2) n (%)
ICI Dense, animals ([1]; L + ASI II: 3.62 mg/kg of diet): 2 (%15.4) n (%)
ICI Little visible, animals ([1]; L + ASI II: 3.62 mg/kg of diet): 0 (%0)^ n (%)
ICI Slightly visible, animals ([1]; L + ASI II: 3.62 mg/kg of diet): 11 (%84.6) n (%)
levels for IL-1β and MPO in the ASI II group in comparison to the ASI I group ([2]; 3.62 vs 1.81 mg/kg of diet): significantly lower
levels for IL-1β, MMP-8, RANK, RANKL, OPG, MPO in comparison to the periodontitis group ([2]; ASI groups (both doses)): significantly lower
IL-1β protein level ([2]; L + ASI I: 1.81 mg/kg of diet): 142.5 ± 2.53^a,b
MMP-8 protein level ([2]; L + ASI I: 1.81 mg/kg of diet): 166.79 ± 7.86^a,b
MPO protein level ([2]; L + ASI I: 1.81 mg/kg of diet): 180 ± 2.97^a,b
OPG protein level ([2]; L + ASI I: 1.81 mg/kg of diet): 72.87 ± 4.67^a,b
RANK protein level ([2]; L + ASI I: 1.81 mg/kg of diet): 189.27 ± 5.3^a,b
RANKL protein level ([2]; L + ASI I: 1.81 mg/kg of diet): 150.11 ± 6.34^a,b
IL-1β protein level ([2]; L + ASI II: 3.62 mg/kg of diet): 111.24 ± 2.35^a,b,c
MMP-8 protein level ([2]; L + ASI II: 3.62 mg/kg of diet): 150.256 ± 11.6^a,b
MPO protein level ([2]; L + ASI II: 3.62 mg/kg of diet): 159.59 ± 13.09^a,b,c
OPG protein level ([2]; L + ASI II: 3.62 mg/kg of diet): 91.13 ± 3.04^a,b,c
RANK protein level ([2]; L + ASI II: 3.62 mg/kg of diet): 174.31 ± 9.82^a,b
RANKL protein level ([2]; L + ASI II: 3.62 mg/kg of diet): 138.35 ± 13.6^a,b
reduction in symptoms of gingivitis ([3]; group (I): administered once-daily, eight and twelve weeks): most significant reduction
reduction in symptoms of gingivitis ([3]; group (I): administered once-daily, four weeks): significant reduction
reduction in symptoms of gingivitis ([3]; group (II): topically administered once-daily to the oral cavity, eight and twelve weeks): most significant reduction
reduction in symptoms of gingivitis ([3]; group (II): topically administered once-daily to the oral cavity, four weeks): significant reduction
improvement in periodontal symptoms ([4]; group (A): scaling and root planning combined with daily arginine silicate, eight and twelve weeks): significant improvement
improvement in periodontal symptoms ([4]; group (A): scaling and root planning combined with daily arginine silicate, four weeks): significant improvement
improvement in periodontal symptoms ([4]; group (C): daily arginine silicate alone, eight and twelve weeks): significant improvement
improvement in periodontal symptoms ([4]; group (C): daily arginine silicate alone, four weeks): minimal improvement
serum calcium levels ([5]; ASI II group (3.62 mg/kg of diet)): significantly reduced
serum CRP levels in comparison to the induced periodontitis group ([5]; ASI treatment groups (both doses)): significantly lower
ALP (serum) [5, 7]: 440.31 ± 69.93 U/L
CRP (serum) [5, 7]: 0.16 ± 0.07^b mg/dl
Ca (serum) [5, 7]: 10.37 ± 0.32 mg/dL
P (serum) [5, 7]: 8.35 ± 1.82 mg/dL
ALP (serum) [5, 8]: 380.54 ± 85.36 U/L
CRP (serum) [5, 8]: 0.18 ± 0.06^b mg/dl
Ca (serum) [5, 8]: 9.78 ± 0.66^c mg/dl
P (serum) [5, 8]: 7.82 ± 1.61 mg/dL
bone mineral density with respect to the controls and the ASI I group ([6]; ASI II (3.62 mg/kg of diet)): significantly increased
BMD (bone mineral density) ([6]; L + ASI I: 1.81 mg/kg of diet): 0.78 ± 0.07 g/cm^2
DCEJ-DCB/DCEJ-DRAP, rate of bone loss ([6]; L + ASI I: 1.81 mg/kg of diet): 0.41 ± 0.12 ^
MCEJ-MCB/MCEJ-MRAP, rate of bone loss ([6]; L + ASI I: 1.81 mg/kg of diet): 0.49 ± 0.10 ^a,b
RF-RFCB/RF-RFAP, rate of bone loss ([6]; L + ASI I: 1.81 mg/kg of diet): 0.21 ± 0.04 ^a,b
BMD (bone mineral density) ([6]; L + ASI II: 3.62 mg/kg of diet): 0.85 ± 0.06 ^b g/cm^2
DCEJ-DCB/DCEJ-DRAP, rate of bone loss ([6]; L + ASI II: 3.62 mg/kg of diet): 0.42 ± 0.08 ^
MCEJ-MCB/MCEJ-MRAP, rate of bone loss ([6]; L + ASI II: 3.62 mg/kg of diet): 0.50 ± 0.10 ^a,b
RF-RFCB/RF-RFAP, rate of bone loss ([6]; L + ASI II: 3.62 mg/kg of diet): 0.22 ± 0.05 ^a,b
